According to PubChem BioAssay (NCI):
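Grown in 96-well plates, cells were treated for 48 hours with each compound at five concentrations. Insufficient inhibition: endpoint recorded as highest concentration tested. GI50 is the concentration that inhibits growth by half. TGI marks complete inhibition of growth.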

How the values were obtained:
Experiment in all cases: NCI tumour cell line growth inhibition, 48 h
A549 NSCLC = system: A549 NSCLC
ACHN renal = system: ACHN renal
COLO 205 colon = system: COLO 205 colon
HOP-62 NSCLC = system: HOP-62 NSCLC
HT29 colon = system: HT29 colon
MDA-MB-231 breast = system: MDA-MB-231 breast
MOLT-4 leukemia = system: MOLT-4 leukemia
NCI-H460 lung = system: NCI-H460 lung
SN12C renal = system: SN12C renal
SNB-75 CNS = system: SNB-75 CNS

SMILES	GI50 (A549 NSCLC) [µM]	TGI (A549 NSCLC) [µM]	GI50 (ACHN renal) [µM]	TGI (ACHN renal) [µM]	GI50 (COLO 205 colon) [µM]	TGI (COLO 205 colon) [µM]	GI50 (HOP-62 NSCLC) [µM]	TGI (HOP-62 NSCLC) [µM]	GI50 (HT29 colon) [µM]	TGI (HT29 colon) [µM]	GI50 (MDA-MB-231 breast) [µM]	TGI (MDA-MB-231 breast) [µM]	GI50 (MOLT-4 leukemia) [µM]	TGI (MOLT-4 leukemia) [µM]	GI50 (NCI-H460 lung) [µM]	TGI (NCI-H460 lung) [µM]	GI50 (SN12C renal) [µM]	TGI (SN12C renal) [µM]	GI50 (SNB-75 CNS) [µM]	TGI (SNB-75 CNS) [µM]
CC(SC(C)C(=O)N/N=C/c1cccc(Cl)c1)C(=O)N/N=C\c1cccc(Cl)c1 (stereo not given)	3.3	12.3	5.53	> 100	11.6	38.9	13.9	31.4	11.6	32.1	5.87	28.8	11.2	42	2.34	4.92	12.1	53.9	4.28	19.5
C[C@H]1c2cccc(O)c2C(O)=C2C(=O)[C@]3(O)C(O)=C(C(N)=O)C(=O)[C@@H](N(C)C)[C@@H]3[C@@H](O)[C@@H]21	3.22	13.2	3.53	23.9	1.88	3.63	2.76	10.8	3.43	11.9	3.39	13.5	3.57	15	2.96	10.2	3.06	14.5	1.81	6.66
CC(C)c1ccc(Nc2ccc3c(OCCCN4CCN(C)CC4)cccc3n2)cc1	15.6	29.8	12.6	28	1.97	3.96	12	26.4	2.16	4.92	2.11	6.92	2.92	8.2	5.44	18	15.6	31.9	12.8	30
CCCCc1c(OC)cc(O)c2c1C(=O)c1[nH]c(C(=O)O)c(O)c(=O)c1C2=O	–	> 100	–	> 100	–	64.6	–	9.29	–	> 100	–	3.49	–	> 100	–	> 100	–	> 100	–	27.5
COc1ncnc(C2CC2)c1-c1ncc2cnn(Cc3ccc(-c4nc(C(F)(F)F)cn4C(C)C)cc3)c2n1	19.3	> 100	17.6	49.2	23.5	89.4	25.6	> 100	17.9	> 100	22.9	> 100	17.5	> 100	18.4	85.4	18.6	> 100	5.36	53.6
O=c1c2ccccc2[se]n1-c1cccnc1	–	> 100	–	88.1	–	45.1	–	71	–	> 100	–	66.6	–	> 100	–	> 100	–	99.4	–	43.8
CCCCCCCCCC/C=C/CC(=O)SCCNC(=O)CCNC(=O)[C@@H](O)C(C)(C)COP(=O)(O)OP(=O)(O)OCC1OC(n2cnc3c(N)ncnc32)C(O)C1OP(=O)(O)O (stereo not given in full)	–	> 10	–	> 10	–	> 10	–	> 10	–	> 10	–	> 10	–	> 10	–	> 10	–	> 10	–	> 10
